This passage reports TGI results from PubChem BioAssay (NCI).

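48-hour exposure; five concentrations; linearly interpolated endpoints. TGI marks complete inhibition of growth.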

Common to all, as to assay: growth of human tumour cells (NCI), 48 h
For assay [1], the system named is OVCAR-3 ovarian.
Assay [2] deals with SR leukemia.
The test system of assay [3] is OVCAR-5 ovarian.
Assay [4] concerns HS 578T breast.
Assay [5] concerns SF-539 CNS.
In assay [6] the test system is U251 CNS.
Assay [7] has as its system NCI/ADR-RES ovarian.
Assay [8] concerns NCI-H226 lung.
For assay [9], the system named is 786-0 renal.
The test system of assay [10] is PC-3 prostate.

For `CC1CCC2(CC1)N=C1CCC(C)CC1C1(CCC(C)CC1)N2` (stereo not given), the TGI in assay [1], in assay [2], in [3], in assay [4], in [5] and in assay [6] was > 100 µM each time. Moreover, the TGI in assay [7], in assay [8], in assay [9] and in assay [10] was > 100 µM in each case.
On to `COc1cc2c(cc1Cl)n([O-])c(C#N)c(N1CCN(c3ccc([N+](=O)[O-])cc3)CC1)[n+]2=O`, for which the TGI in assay [1] was > 100 µM; in [2] it was > 30.7 µM; in assay [3] it was > 100 µM; in assay [4], > 57.5 µM; in [5] it was 44.3 µM; in assay [6] it was > 100 µM. The TGI in [7], in assay [8], in assay [9] and in [10] was > 100 µM each time.
`O=C(CCCn1ccnc1[N+](=O)[O-])NCCn1ccnc1[N+](=O)[O-]`: the TGI in [1], in [2], in assay [3], in assay [4], in assay [5] and in assay [6] was > 100 µM throughout. Also, the TGI in [7], in [8], in assay [9] and in assay [10] was > 100 µM throughout.
`CC(C)C(C/C=C1\CC(CO)(COC(=O)CC(C(C)C)C(C)C)OC1=O)C(C)C` (stereo not given): the TGI in assay [1] came to 30.6 µM; in [2], 31.6 µM; in assay [3], 26.9 µM; in assay [4], 15.8 µM; in [5], 33 µM; in [6], 29.4 µM. The TGI stood at 31.8 µM in assay [7], 24.4 µM in assay [8], 21.1 µM in assay [9] and 24.6 µM in assay [10].
On to `CCOC(=O)N(C)C1(c2ccccc2)CCN(CCCC(=O)c2ccc(F)cc2)CC1`, for which the TGI in [1] was > 100 µM; in assay [2], 45.8 µM; in assay [3], > 100 µM; in assay [4], > 100 µM; in assay [5] it was 65.7 µM; in [6], > 100 µM. The TGI in [7] is > 100 µM; in [8], > 100 µM; in [9], 88.7 µM; in assay [10] it was > 100 µM.
For `c1ccc(C2=C(c3ccccc3)P(c3ccccc3)C2)cc1` (stereo not given), the TGI in assay [1], in assay [2], in assay [3], in assay [4], in assay [5] and in assay [6] was > 100 µM throughout. For the same molecule, the TGI in [7], in [8], in assay [9] and in assay [10] was > 100 µM throughout.
Take `CCC(C)C1(O)OC2CC3(C)OC(=CC3=O)/C(C)=C\C3OC(=O)C1(C)C32` (stereo not given): the TGI in [1] is 42.6 µM; in assay [2] it was 73.5 µM; in [3] it was > 100 µM; in [4], > 100 µM; in assay [5], > 100 µM; in [6], > 100 µM. Besides, the TGI in assay [7] was > 100 µM; in assay [8] it was 63 µM; in [9], 81.8 µM; in assay [10], > 100 µM.
For `O=C1C(N=Nc2ccc(-c3nc4ccccc4[nH]3)cc2)NC(=S)N1c1ccccc1` (stereo not given), the TGI was > 100 µM in assay [1]; 15.3 µM in assay [2]; > 100 µM in assay [3]; > 100 µM in assay [4]; > 100 µM in [5]; > 100 µM in [6]. Also, the TGI in assay [7] was > 100 µM; in [8], > 100 µM; in [9], 39 µM; in [10], > 100 µM.
On to `NC(=O)NCCCC(NC(=O)OCCCCCn1ccc(=O)[nH]c1=O)C(=O)O` (stereo not given), for which the TGI in assay [1], in assay [2], in assay [3], in [4], in assay [5] and in assay [6] was > 100 µM each time. The TGI in assay [7], in [8], in [9] and in assay [10] was > 100 µM each time.
In the case of `CN(C)CCOC1(CC2CCCCC2)CCC(C(C)(C)C)CC1` (stereo not given), the TGI in assay [1] was 18.4 µM; in assay [2], 4.57 µM; in assay [3] it was 17.5 µM; in assay [4], 23.4 µM; in [5], 10.6 µM; in assay [6], 13.2 µM. The TGI in assay [7] came to 23.8 µM; in [8] it was 21.2 µM; in [9], 5.91 µM; in [10], 13.2 µM.
Take `O=C(O)/C=C/C(=O)O`: the TGI in assay [1], in assay [2], in [3], in assay [4], in assay [5] and in [6] was > 100 µM throughout. In addition, the TGI in assay [7], in assay [8], in assay [9] and in assay [10] was > 100 µM throughout.
Take `O=[N+]([O-])c1ccc(Cl)cc1C=NC12CC3CC(CC(C3)C1)C2`: the TGI in [1] was > 100 µM; in assay [2], 26.4 µM; in assay [3], > 100 µM; in assay [4], > 92.6 µM; in assay [5], > 86.7 µM; in assay [6], > 100 µM. Besides, the TGI in assay [7] is > 86.9 µM; in assay [8], > 100 µM; in [9] it was > 95.2 µM; in [10] it was > 100 µM.
On to `N#Cc1nc(/C=C/c2ccccc2)oc1N`, for which the TGI in assay [1] was > 100 µM; in assay [2], 2.9 µM; in assay [3] it was > 100 µM; in assay [4] it was > 100 µM; in assay [5], > 100 µM; in [6], > 100 µM. For the same molecule, the TGI in [7], in assay [8], in assay [9] and in [10] was > 100 µM each time.
In the case of `CC(=N\N=C\c1ccccn1)/C(C)=N/N=C(C)/C(C)=N/N=C(C)/C(C)=N/N=C/c1ccccn1`, the TGI in assay [1], in assay [2], in assay [3], in assay [4], in [5] and in assay [6] was > 100 µM in each case. The TGI in assay [7], in assay [8], in [9] and in [10] was > 100 µM throughout.
As to `O=C(c1ccccc1)N1C(=S)N(c2ccc([N+](=O)[O-])cc2)C(=Nc2ccccc2)C1=Nc1ccccc1`, the TGI in assay [1], in assay [2], in assay [3], in assay [4], in [5] and in assay [6] was > 100 µM in each case. For the same molecule, the TGI in [7], in assay [8], in assay [9] and in assay [10] was > 100 µM throughout.
In the case of `NCCCCNC1(c2cc3ccccc3s2)CCCCC1`, the TGI in assay [1] was 9.28 µM; in [2], 3.58 µM; in [3] it was 19.2 µM; in assay [4], 20.4 µM; in [5] it was 4.59 µM; in assay [6] it was 5.49 µM. In addition, the TGI in assay [7] was 21.2 µM; in assay [8], 34 µM; in [9], 3.95 µM; in assay [10], 17.3 µM.
As for `C/C(N=Nc1nc2ccccc2o1)=C1/C=CC=CN1O`, the TGI in assay [1] was 7.69 µM; in assay [2], 19.5 µM; in [3], 28.1 µM; in [4], > 100 µM; in assay [5], 62 µM; in assay [6], > 100 µM. Further, the TGI in assay [7] was 89.1 µM; in assay [8], > 100 µM; in assay [9], > 100 µM; in [10], > 100 µM.
Take `O=c1[nH]c2ccccc2c2oc(-c3ccccc3)nc12`: the TGI in assay [1] is > 100 µM; in [2], 70.7 µM; in assay [3], > 100 µM; in assay [4] it was 71.9 µM; in [5], > 100 µM; in assay [6], 60.8 µM. In addition, the TGI in [7] was > 100 µM; in assay [8], > 100 µM; in [9] it was 56.1 µM; in assay [10], > 100 µM.
On to `CCOC(=O)C(=Cn1c(=S)[nH]c2ccc([N+](=O)[O-])cc21)C(=O)OCC`, for which the TGI in [1], in assay [2], in assay [3], in assay [4], in assay [5] and in assay [6] was > 100 µM in each case. For the same molecule, the TGI in [7], in assay [8], in assay [9] and in assay [10] was > 100 µM throughout.
Turning to `CCOC(=O)C(C)c1nc2cc(N3CCN(C)CC3)c(F)cc2[nH]c1=O` (stereo not given), the TGI in [1], in [2], in assay [3], in assay [4], in assay [5] and in assay [6] was > 100 µM in each case. Further, the TGI in assay [7], in assay [8], in assay [9] and in assay [10] was > 100 µM in each case.
As for `CN(c1ccccc1Cl)S(=O)(=O)c1ccccc1[N+](=O)[O-]`, the TGI in [1], in [2], in assay [3], in assay [4], in assay [5] and in [6] was > 100 µM throughout. In addition, the TGI was 95.9 µM in assay [7], > 100 µM in [8], > 100 µM in assay [9] and > 100 µM in assay [10].
As for `O=C(OCc1ccccc1)N1c2cc([N+](=O)[O-])ccc2C(=O)N2CCC[C@H]2C1O` (stereo not given in full), the TGI in assay [1], in assay [2], in assay [3], in [4], in [5] and in [6] was > 100 µM each time. In addition, the TGI in [7], in [8], in [9] and in assay [10] was > 100 µM throughout.
